# Measurements: patent US10150982B2, “Microbial ecology shift assay” (Second Genome, Inc., priority 2013, dated 2018)
# What was measured:
# [1] = system: microbiota of human donor fecal samples; test: MESA microplate experiments (16S rRNA V4 sequencing, PCoA/Unifrac); format: cell-based; details: 24 hours anaerobic
# Procedure: A fecal sample was obtained from each of three human donors, Donor 1, Donor 2, and Donor 3. 1 gram of each fecal sample was added to 10 mL phosphate buffered saline (PBS) to form three separate slurries of 10% (w/v) fecal sample. A total of 36 experiments was setup on a 48-well plate (referred to herein as “microplate experiments”). For each slurry obtained from Donor 1 Donor 2, or Donor 3, 40 μL of the respective slurry was added to each of twelve wells of the plate. For each of these 12 wells, 360 μL of water (control), water comprising fructose, or water comprising fructose oligosaccharide (FOS) were added. After addition of water, three of the twelve wells comprised slurry+water; three of the twelve wells comprised slurry+2% w/v fructose+water; three of the twelve wells comprised slurry+0.5% w/v FOS+water; and three of the twelve wells comprised slurry+2% w/v FOS+water. In Table 1, “Donor 1” represents slurry from Donor 1, “Donor 2” represents slurry from Donor 2, and “Donor 3” represents slurry from Donor 3. The microplate was then incubated for 24 hours in an anaerobic chamber under 80% nitrogen, 10% carbon dioxide, and 10% hydrogen (H2). A total of 8 experiments were prepared each in a vial (referred to herein as “tube experiments”). 200 μL of slurry from Donor 1 was added to each of the 8 vials. In 4 of the vials, 1.8 mL of water comprising FOS was added for a final concentration of 2% w/v FOS. For the other four vials, 1.8 mL of water (control) was added. Two of the vials comprising FOS and the two vials comprising water are incubated for 24 hours in an anaerobic chamber (comprising 80% nitrogen, 10% carbon dioxide, and 10% hydrogen (H2)) at 37° C. The other four vials are incubated for 16 hours. DNA was extracted from each sample (well or tube) and quantified using a PicoGreen method. DNA is also extracted from an aliquot of each slurry obtained from Donor 1, Donor 2, and Donor 3. DNA comprising the variable region (V4) region of the 16S rRNA gene was amplified and sequenced using the MiSeq platform from Ilumina. Principle component analyses (PCoA) were performed to identify Unifrac distances (degree of similarity/dissimilarity) of the different treatment groups. Relative taxa representation for the various treatment groups was determined at the phylum, class, order, family, genus and species levels using operational taxonomic units (OTUs) by comparing results to the GreenGenes database.
# [2] = system: microbiota of human donor fecal samples; test: MESA tube experiments (16S rRNA V4 sequencing, PCoA/Unifrac); format: cell-based; details: 2% FOS
# Procedure: A fecal sample was obtained from each of three human donors, Donor 1, Donor 2, and Donor 3. 1 gram of each fecal sample was added to 10 mL phosphate buffered saline (PBS) to form three separate slurries of 10% (w/v) fecal sample. A total of 36 experiments was setup on a 48-well plate (referred to herein as “microplate experiments”). For each slurry obtained from Donor 1 Donor 2, or Donor 3, 40 μL of the respective slurry was added to each of twelve wells of the plate. For each of these 12 wells, 360 μL of water (control), water comprising fructose, or water comprising fructose oligosaccharide (FOS) were added. After addition of water, three of the twelve wells comprised slurry+water; three of the twelve wells comprised slurry+2% w/v fructose+water; three of the twelve wells comprised slurry+0.5% w/v FOS+water; and three of the twelve wells comprised slurry+2% w/v FOS+water. In Table 1, “Donor 1” represents slurry from Donor 1, “Donor 2” represents slurry from Donor 2, and “Donor 3” represents slurry from Donor 3. […] DNA was extracted from each sample (well or tube) and quantified using a PicoGreen method. […] Relative taxa representation for the various treatment groups was determined at the phylum, class, order, family, genus and species levels using operational taxonomic units (OTUs) by comparing results to the GreenGenes database.
# [3] = Donor 1, 2% w/v agent, n=3, FIG. 2
# [4] = Donor 2, 2% w/v agent, n=3, FIG. 3
# [5] = Donor 3, 2% w/v agent, n=3, FIG. 4
Compound,"shift in microbiota profile (PCoA, Unifrac distances) ([1]; Donor 1, 0.5% w/v agent, n=3, FIG. 2)","shift in microbiota profile (PCoA, Unifrac distances) [1, 3]","shift in microbiota profile (PCoA, Unifrac distances) ([1]; Donor 2, 0.5% w/v agent, n=3, FIG. 3)","shift in microbiota profile (PCoA, Unifrac distances) [1, 4]","shift in microbiota profile (PCoA, Unifrac distances) ([1]; Donor 3, 0.5% w/v agent, n=3, FIG. 4)","shift in microbiota profile (PCoA, Unifrac distances) [1, 5]","shifts in microbial communities between the two assay formats ([2]; 24 hour incubation, tube (n=2) vs microplate (n=3), FIG. 6)","shifts in microbial communities between the two incubation times ([2]; Donor 1, 16 hour vs 24 hour incubation, tube, n=2, FIG. 5)"
fructose oligosaccharide [FOS],shift microbiota differently from controls,shift microbiota differently from controls,shift microbiota differently from controls,shift microbiota differently from controls,shift microbiota differently from controls,shift microbiota differently from controls,similar,similar
O=C(CO)[C@@H](O)[C@H](O)[C@H](O)CO [fructose],,shift microbiota differently from controls,,shift microbiota differently from controls,,shift microbiota differently from controls,,
